Drawing on the supplement of paper PMC10307832, this text covers relative viability for one cell line.

Holding throughout (assay): relative viability (nuclei count vs DMSO), 5 days (fraction); higher = more cells survive
Compound in experiment [1]: N#CC1(c2ccc(NC(=O)c3cccnc3NCc3ccncc3)cc2)CCCC1 [Apatinib] + N=C(N)NC(=N)NCCc1ccccc1 [Phenformin] (partner 250 µM)
The procedure, abridged: (§1)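 A single step with final 0.05% Triton X-100, 1% formaldehyde and 1 ug/ml Hoechst fixed the cells and stained nuclei 5 days after treatment. Lung cancer cell lines in 1536-well plates had been treated by pin tool the day after seeding with one drug alone or a fixed anchor-drug dose plus five library-drug doses (not always all listed) in √10 steps, and nuclei were counted on 4× images. Relative viability is the ratio of nuclei in treated wells to nuclei in vehicle wells, taken as the median of duplicate plates.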

Compound in experiment [2]: CN(C)C(=N)NC(=N)N [Metformin] + CS(=O)(=O)CCNCc1ccc(-c2ccc3ncnc(Nc4ccc(OCc5cccc(F)c5)c(Cl)c4)c3c2)o1 [Lapatinib] (partner 2 µM)
The procedure, abridged: as §1

Compound in experiment [3]: N#CC1(c2ccc(NC(=O)c3cccnc3NCc3ccncc3)cc2)CCCC1 [Apatinib] + CS(=O)(=O)CCNCc1ccc(-c2ccc3ncnc(Nc4ccc(OCc5cccc(F)c5)c(Cl)c4)c3c2)o1 [Lapatinib] (partner 2 µM)
The procedure, abridged: as §1

Compound in experiment [4]: N#CC1(c2ccc(NC(=O)c3cccnc3NCc3ccncc3)cc2)CCCC1 [Apatinib] + CC(C)C[C@H](NC(=O)[C@H](Cc1ccccc1)NC(=O)c1cnccn1)B(O)O [Bortezomib] (partner 0.002 µM)
An outline of the steps: as §1

As to NCI-H460, the relative viability in experiment [1] (first compound 0.08 µM) stood at 0.494; in experiment [1] (first compound 0.253 µM), 0.479; in experiment [1] (first compound 0.8 µM), 0.489; in experiment [1] (first compound 2.53 µM), 0.39; in experiment [1] (first compound 8 µM) it was 0.385; in experiment [2] (first compound 31.62 µM), 1.15. Moreover, the relative viability in experiment [2] (first compound 100 µM) was 0.9; in experiment [2] (first compound 316.23 µM), 0.849; in experiment [2] (first compound 1000 µM), 1.02; in experiment [3] (first compound 0.08 µM), 0.915; in experiment [3] (first compound 0.253 µM), 0.93; in experiment [3] (first compound 0.8 µM), 0.796. Further, the relative viability was determined as 0.905 in experiment [3] (first compound 2.53 µM); 0.777 in experiment [3] (first compound 8 µM); 1.11 in experiment [4] (first compound 0.08 µM); 1.03 in experiment [4] (first compound 0.253 µM); 0.888 in experiment [4] (first compound 0.8 µM); 0.98 in experiment [4] (first compound 2.53 µM). Besides, the relative viability in experiment [4] (first compound 8 µM) is 1.01.
